Measured values from patent publication US9901591B2, “Paeoniflorin preparations and uses thereof for fat reduction” (priority 2008, dated 2018).
Several values for one entry are separate records, joined by “and”; a condition that tells them apart may be missing. Equal entries are not always repeated.

Columns and labels:
[1] = system: Adiponectin receptor 1 (Adipor1); test: Oligo GEArray microarray of obesity-related genes in 3T3-L1 adipocytes; format: cell-based, mouse; conditions: for Ratio of expression signals of Adipor1 compared to control: 1 umol/L PF, control = 1
Experimental: (§1) 3T3-L1 adipocytes were cultured in medium containing 1 umol/L PF as test group and medium only as control. Total RNA was extracted and Oligo GEArray was tested using Superarray OMM-17. The GEArray includes 111 obesity-related genes that are directly involved in the regulation of energy intake and expenditure. The genes included orexigenic peptides, hormones, and receptors, anorectic peptides, hormones, receptors, and central and peripheral signaling molecules involved in energy expenditure. The increase changes or decrease changes of more than 1.5 fold are regarded meaningful according to the diagnosis discipline, as described in the insert literature of a metabolic disease/obesity gene panel product purchased from Superarray Bioscience Corporation. (Frederick, Md.). […] In the graphs, the data above the upper line and the data below the lower line show a significant change of gene expression.

[2] = system: Adra2b; test: as above; format: cell-based, mouse; conditions: for Ratio of expression signals of Adra2b compared to control: 3T3-L1 adipocytes, 1 umol/L PF, control = 1
Experimental: as §1

[3] = system: Adrb2; test: as above; format: cell-based, mouse; conditions: for Ratio of expression signals of Adrb2 compared to control: 1 umol/L PF, control = 1
Experimental: as §1

[4] = system: Adrb3; test: as above; format: cell-based, mouse; conditions: for Ratio of expression signals of Adrb3 compared to control: 1 umol/L PF, control = 1
Experimental: as §1

[5] = system: Peroxisome proliferators activated receptor gamma (Pparg); test: as above; format: cell-based, mouse; conditions: for Ratio of expression signals of Pparg compared to control: 1 umol/L PF, control = 1
Experimental: as §1

[6] = system: β1-adrenergic receptor (Adrb1); test: as above; format: cell-based, mouse; conditions: for Ratio of expression signals of Adrb1 compared to control: 3T3-L1 adipocytes, 1 umol/L PF, control = 1
Experimental: as §1

[7] = system: Carboxypeptidase E (Cpe); test: as above; format: cell-based, mouse; conditions: for Ratio of expression signals of Cpe compared to control: 1 umol/L PF, control = 1
Experimental: 3T3-L1 adipocytes were cultured in medium containing 1 umol/L PF as test group and medium only as control. Total RNA was extracted and Oligo GEArray was tested using Superarray OMM-17. The GEArray includes 111 obesity-related genes that are directly involved in the regulation of energy intake and expenditure. The genes included orexigenic peptides, hormones, and receptors, anorectic peptides, hormones, receptors, and central and peripheral signaling molecules involved in energy expenditure. The increase changes or decrease changes of more than 1.5 fold are regarded meaningful according to the diagnosis discipline, as described in the insert literature of a metabolic disease/obesity gene panel product purchased from Superarray Bioscience Corporation. (Frederick, Md.).
In the graphs, the data above the upper line and the data below the lower line show a significant change of gene expression.

[8] = Blood indices before and after PF treatment in patients; format: in vivo, human
Experimental: Eight patients were treated with PF. The levels of three indices such as serum cholesterol, LDL Cholesterol, serum triglycerides in blood were tested before and after treatment.

[9] = Targeted fat reduction with injectable PF preparation in patients; format: in vivo, human
Experimental: 1 ml of PF (1) at a concentration of 1 mol is mixed with 4 ml injectable water and 5 ml (phosphatidyl choline (PPC)) prepared from soya bean extract and 5 ml 2% lidocaine. A total of 15 ml solution. This solution is mixed together in a 20 ml syringe and the needle is changed to a small insulin needle Gauge 30×½ as shown therein before the actual injections are given. The solution is then given subcutaneously directly into the fat areas at a dose of 0.5 ml per site totaling 20 injections. These injections are spread out to cover a big surface area, e.g. could be spread out through a whole midsection (“love handle”) in case of a larger patient, or if the patient were an average size it could be spread out to cover right and left love handles in one session. For reference, please refer to the patients injected in the thigh and buttocks area, for explanation. This patient was injected with 30 smaller injections of 0.2 ml per site, and they were spread through out the whole outer and inner thigh and buttocks areas on the right side. 0.5 mg of PF was dissolved in 5 ml of injectable water rendering a concentration of 0.1 mg/ml. This was then mixed with 5 ml of Phosphatidyl Choline in a 20 ml syringe. The large gauge needle was then replaced with a smaller gauge (Gauge 27-30, in some embodiments, a 30 gauge×½) insulin needle and the 10 ml was injected into 20 different sites of a given area. 0.5 ml of the solution was injected into the stomach, with about 1 cm separating each injection site.

[10] = as above; format: in vivo, human; conditions: alternative protocol, 20 small (0.1 to 0.2 ml) injections per session, 5 sessions

Compound: C[C@@]12C[C@@]3(O)O[C@@H](O1)[C@]1(COC(=O)c4ccccc4)[C@H]3C[C@@]12O[C@@H]1O[C@H](CO)[C@@H](O)[C@H](O)[C@H]1O [PF, paeoniflorin]
- Ratio of expression signals of Adipor1 compared to control ([1]; 3 days): 0.68
- Ratio of expression signals of Adipor1 compared to control ([1]; 6 days): 1.21
- Ratio of expression signals of Adipor1 compared to control ([1]; 7 days): 1.86
- increase of Adipor1 expression ([1]; day 7 of exposure to PF): 1.86 fold
- effect on expression of Adra2b ([2]; 3T3-L1 adipocytes exposed to PF, whole study): no effect on Adra2b
- Ratio of expression signals of Adra2b compared to control ([2]; 3 days): 0.92
- Ratio of expression signals of Adra2b compared to control ([2]; 6 days): 1.44
- Ratio of expression signals of Adra2b compared to control ([2]; 7 days): 1.27
- Ratio of expression signals of Adrb2 compared to control ([3]; 3 days): 0.74
- Ratio of expression signals of Adrb2 compared to control ([3]; 6 days): 1.96
- Ratio of expression signals of Adrb2 compared to control ([3]; 7 days): 7.40
- increase of Adrb2 expression ([3]; 7 days post exposure to PF): 7.4 fold
- Ratio of expression signals of Adrb3 compared to control ([4]; 3 days): 1.56
- Ratio of expression signals of Adrb3 compared to control ([4]; 6 days): 3.18
- Ratio of expression signals of Adrb3 compared to control ([4]; 7 days): 5.65
- increase of Adrb3 expression ([4]; 7 days post exposure to PF): 5.65 fold
- Ratio of expression signals of Pparg compared to control ([5]; 3 days): 0.91
- Ratio of expression signals of Pparg compared to control ([5]; 6 days): 1.09
- Ratio of expression signals of Pparg compared to control ([5]; 7 days): 0.64
- reduction of the level of expression of Pparg ([5]; day 7 of exposure to PF): 1.54 fold
- effect on expression of Adrb1 ([6]; 3T3-L1 adipocytes exposed to PF): significant increase
- Ratio of expression signals of Adrb1 compared to control ([6]; 3 days): 3.39
- Ratio of expression signals of Adrb1 compared to control ([6]; 6 days): 0.8
- Ratio of expression signals of Adrb1 compared to control ([6]; 7 days): 0.58
- Ratio of expression signals of Cpe compared to control ([7]; 3 days): 0.79
- Ratio of expression signals of Cpe compared to control ([7]; 6 days): 1.04
- Ratio of expression signals of Cpe compared to control ([7]; 7 days): 2.67
- increase of Cpe expression compared to the control ([7]; day 7 of exposure to PF): 2.67 fold
- Serum Triglycerides Post-tx, Ave ([8]; average of eight patients, Pre-tx Ave 79.38, P 0.462, NR: 35-160): 72.50 mg/dL
- LDL Cholesterol Post-tx, Ave ([8]; average of eight patients, Pre-tx Ave 122.81, P 0.452, NR: 60-150): 112.69 mg/dL
- Serum Cholesterol Post-tx, Ave ([8]; average of eight patients, Pre-tx Ave 202.88, P 0.002, NR: 50-200): 172.75 mg/dL
- Serum cholesterol, LDL Cholesterol, serum triglycerides in blood, change after treatment ([8]; eight patients, before vs after treatment): reduced after PF treatment
- Serum Triglycerides Post-tx ([8]; individual cases 1-8, after PF treatment, NR: 35-160): 60 mg/dL and 59 mg/dL and 67 mg/dL and 71 mg/dL and 110 mg/dL and 55 mg/dL and 85 mg/dL and 73 mg/dL
- Serum Cholesterol Post-tx ([8]; individual cases 1-8, after PF treatment, NR: 50-200): 135 mg/dL and 151 mg/dL and 222 mg/dL and 168 mg/dL and 237 mg/dL and 150 mg/dL and 148 mg/dL and 171 mg/dL
- LDL Cholesterol Post-tx ([8]; individual cases 1-8, after PF treatment, NR: 60-150): 75 mg/dL and 92 mg/dL and 146 mg/dL and 108 mg/dL and 176.5 mg/dL and 98 mg/dL and 93 mg/dL and 113 mg/dL
- weight loss ([9]; 2 sessions together with an aerobic instructor, in 2 weeks): over 3 pounds
- Size at End of Treatment, stomach area ([9]; Patient 1, 6 weeks/11 sessions, size before start 90 cm): 83 cm
- Size at End of Tx, stomach area ([9]; Patient 2, 5 weeks/9 sessions, size before start 96 cm): 90 cm
- Size at End, both upper arms ([9]; Patient 3, 1 month/8 sessions (4 per side), size before start 40 cm): 36.5 cm
- fat loss ([9]; each 10 sessions): about 7 cm
- fat loss ([9]; in 5 sessions of 20 injections of 0.5 ml): 3 cm
- sessions until a noticeable difference was seen ([9]; on average, sessions of 20 injections): 4-5 sessions
- fat loss ([9]; one patient, 10 sessions over about 6 weeks): more than 5 inches
- sessions per 1 cm of fat dissolved ([9]; stomach and thigh areas, human): 1-1.5 sessions
- fat dissolved per session ([9]; upper arms areas, human): about 1 cm
- fat lost ([9]; with 10 sessions): over 5 pounds
- measurable fat loss [10]: 3 cm
